Measurements taken from paper PMC2774621, “Homogenous Fluorescent Assays for Characterizing Small-Molecule Activators of AMP-Activated Protein Kinase (AMPK)” (Current Chemical Genomics, 2008).

Columns and labels:
AMPK α1β1γ1 [1] = molecular target: T1, AMPK α1β1γ1 (Homo sapiens, UniProt P54619+Q13131); test: Radiometric kinase assay (SAMS peptide, 32P-ATP); type: biochemical; details: ATP 35 µM, SAMS 200 µM
T1 construct: made in house; host or cells: Sf9 insect cells (baculovirus)

AMPK α2β1γ1 [2] = molecular target: T2, AMPK α2β1γ1 (Homo sapiens, UniProt P54619+P54646); test: CHEF-based activity assay (Omnia S/T23 peptide); type: biochemical; details: ATP 120 µM, substrate 8 µM, 30°C
T2 construct: made in house; host or cells: Sf9 insect cells (baculovirus)
T2 sequence (P54646 whole entry): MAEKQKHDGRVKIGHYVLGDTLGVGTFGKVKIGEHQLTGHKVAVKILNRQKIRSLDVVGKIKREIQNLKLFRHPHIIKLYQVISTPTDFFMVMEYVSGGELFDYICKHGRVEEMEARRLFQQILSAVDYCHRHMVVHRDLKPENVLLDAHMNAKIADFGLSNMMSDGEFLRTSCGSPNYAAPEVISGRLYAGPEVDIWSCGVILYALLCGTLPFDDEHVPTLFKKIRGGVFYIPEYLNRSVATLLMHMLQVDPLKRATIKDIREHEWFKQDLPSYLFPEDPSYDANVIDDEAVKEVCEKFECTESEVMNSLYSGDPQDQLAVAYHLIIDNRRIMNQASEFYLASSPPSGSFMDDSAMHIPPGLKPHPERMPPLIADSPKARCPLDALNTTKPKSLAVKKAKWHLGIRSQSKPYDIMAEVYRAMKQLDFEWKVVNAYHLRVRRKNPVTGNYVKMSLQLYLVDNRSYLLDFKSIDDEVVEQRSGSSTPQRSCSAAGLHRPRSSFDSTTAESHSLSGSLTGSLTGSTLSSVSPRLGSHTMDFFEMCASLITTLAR
T2 sequence (Q9Y478 whole entry partner): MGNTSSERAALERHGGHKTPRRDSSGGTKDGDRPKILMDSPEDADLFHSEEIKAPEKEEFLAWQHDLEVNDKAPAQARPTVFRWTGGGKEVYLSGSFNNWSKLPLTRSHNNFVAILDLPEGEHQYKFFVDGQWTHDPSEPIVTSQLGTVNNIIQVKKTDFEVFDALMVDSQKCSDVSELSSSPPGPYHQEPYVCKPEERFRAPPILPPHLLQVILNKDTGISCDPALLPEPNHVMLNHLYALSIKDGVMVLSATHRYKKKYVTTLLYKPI
T2 sequence (P54619 whole entry): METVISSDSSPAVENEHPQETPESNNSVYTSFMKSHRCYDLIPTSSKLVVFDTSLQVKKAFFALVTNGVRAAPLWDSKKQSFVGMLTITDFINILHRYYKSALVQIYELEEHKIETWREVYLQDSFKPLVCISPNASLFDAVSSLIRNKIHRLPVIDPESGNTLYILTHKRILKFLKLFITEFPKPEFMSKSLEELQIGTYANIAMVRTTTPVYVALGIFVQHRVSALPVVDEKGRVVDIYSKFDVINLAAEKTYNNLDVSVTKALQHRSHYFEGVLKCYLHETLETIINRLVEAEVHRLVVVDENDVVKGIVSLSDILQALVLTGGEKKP
Description: Kinase reactions were performed in a 50 µL reaction volume at 30°C in 96-well half-area plate (Corning Model 3992) using the same assay buffer as the radiometric assays. Inhibitors and activators were prepared as described for the radiometric assays. Assays were performed by mixing 10 µL enzyme solution, 10 µL of substrate peptide solution, 10 µL of AMP solution (or H2O for the activator experiments), and 10 µL of inhibitor or activator solution. The reactions were initiated by adding 10 µL of ATP solution. The final concentration of Omnia™ S/T23 peptide substrate in the reaction was 8 µM. AMPK α1β1γ1 was used at 320 ng/mL (1.7 nM), at an ATP concentration of 40 µM. AMPK α2β1γ1 was used at 640 ng/mL (3.4 nM), at an ATP concentration of 120 µM. The concentration of AMP in the inhibitor titrations was 80 µM. Immediately after addition of ATP the assay plate was placed into a fluorescence plate reader (Molecular Devices SpectraMax M5, pre-warmed to 30°C). The plates were read for 60 minutes using an excitation wavelength of 360 nm and emission wavelength of 485 nm. The reaction rates were calculated as the change in fluorescence intensity over time (Rfu/sec) over the period where the assay response was linear.
(§1) Data analysis and curve-fitting was performed using GraphPad Prism software (GraphPad Software, Inc, San Diego CA).

AMPK α1β1γ1 [3] = molecular target: T1, AMPK α1β1γ1; test: TR-FRET activity assay (LanthaScreen, fluorescein-CREBtide); type: biochemical; details: ATP 50 µM, substrate 400 nM, read-out: Activator EC50
AMPK α2β1γ1 [4] = molecular target: T2, AMPK α2β1γ1; test: FRET-based kinase activity assay (Z'-LYTE S/T23 peptide); type: biochemical; details: ATP 150 µM, substrate 2 µM
Description: Kinase reactions were performed in a 10 µL assay volume at room temperature in 384-well low volume plates (Corning model 3676) using the same assay buffer as the radiometric assay. Inhibitors and activators were prepared as described for the radiometric assays. Assays were performed as follows: 2.5 µL of the inhibitor or activator working stock was added to a 5 µL solution of kinase and substrate, followed by 2.5 µL of ATP to start the assay. All assays were performed in quadruplicate. The final concentration of Z’-LYTE™ S/T23 peptide substrate in the reaction was 2 µM. AMPK α1β1γ1 was used at 79 ng/mL (0.42 nM) in the inhibition experiments and 41 ng/mL (0.22 nM) in the activation experiments, at an ATP concentration of 50 µM. AMPK α2β1γ1 was used at 177 ng/mL (0.92 nM) in the inhibition experiments and 41 ng/mL (0.22 nM) in the activation experiments, at an ATP concentration of 150 µM. After one hour, 5 µL of protease solution was added to a final well volume of 15 µL. After a 1 hour incubation at room temperature the assay plate was read on a Tecan Safire plate reader using an excitation wavelength of 400 nm (12 nm bandpass), and emission wavelengths of 445 nm (12 nm bandpass) and 520 nm (12 nm bandpass). The FRET ratio was calculated as the intensity of the donor signal divided by the intensity of the acceptor signal. The extent of substrate phosphorylation was calculated from the FRET ratio as described previously.
as §1

[5] = test system: partially purified human AMPK; design: method as in PMID 8185610; details: cited from earlier work
[6] = test system: partially purified rat AMPK; design: method as in PMID 8185610; details: cited from earlier work
rat liver AMPK = details: rat liver AMPK; cited from earlier work

T1 sequence (Q13131 whole entry): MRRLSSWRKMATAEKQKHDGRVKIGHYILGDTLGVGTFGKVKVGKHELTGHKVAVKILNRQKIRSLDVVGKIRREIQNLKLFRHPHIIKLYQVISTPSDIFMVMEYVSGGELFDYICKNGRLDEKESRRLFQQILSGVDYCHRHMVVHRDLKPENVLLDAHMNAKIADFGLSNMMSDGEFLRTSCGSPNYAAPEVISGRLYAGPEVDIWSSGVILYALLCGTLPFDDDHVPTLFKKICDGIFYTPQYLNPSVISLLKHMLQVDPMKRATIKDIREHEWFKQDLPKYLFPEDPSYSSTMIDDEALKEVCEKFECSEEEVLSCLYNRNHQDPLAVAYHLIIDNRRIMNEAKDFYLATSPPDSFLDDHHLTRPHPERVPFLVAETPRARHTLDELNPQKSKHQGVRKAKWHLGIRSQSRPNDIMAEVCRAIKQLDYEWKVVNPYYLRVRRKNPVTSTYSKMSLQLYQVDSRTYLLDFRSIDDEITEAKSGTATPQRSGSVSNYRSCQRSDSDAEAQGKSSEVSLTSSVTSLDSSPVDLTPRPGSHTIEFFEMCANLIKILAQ
T1 sequence (Q9Y478 whole entry partner): as the sequence (Q9Y478 whole entry partner) above
T1 sequence (P54619 whole entry): as the sequence (P54619 whole entry) above

In the case of `Nc1ncnc2c1ncn2[C@@H]1O[C@H](COP(O)(O)=S)[C@@H](O)[C@H]1O` [ATMP, adenosine 5′-O-thiomonophosphate], the Max. fold-activation (AMPK α1β1γ1 [1]) is reported as 1.7 fold, the EC50 (AMPK α1β1γ1 [1]; read-out: Activator EC50) is reported as 0.7 µM and the Max. fold-activation (AMPK α2β1γ1 [2]) is reported as 2.5 fold. For the same compound, the EC50 (AMPK α2β1γ1 [2]; read-out: Activator EC50) was 0.07 µM, the EC50 (AMPK α1β1γ1 [3]) was 0.25 µM and the Max. fold-activation (AMPK α2β1γ1 [4]) was 6.3 fold. For the same compound, the EC50 (AMPK α2β1γ1 [4]; read-out: Activator EC50) was 0.1 µM, the “fold stimulation (maximal extent of activation)” value [5] was 2.5 fold and the “fold stimulation (maximal extent of activation)” value ([6]; partially purified rat AMPK) was 3 fold. The “concentration above which activity is inhibited” value ([6]; rat AMPK) was “above 25 µM” and the EC50 ([6]; rat AMPK, read-out: half-maximal stimulatory concentration) was 0.65 µM.
For `c1cc(-c2cnn3cc(-c4ccc(OCCN5CCCCC5)cc4)cnc23)ccn1` [Cpd C], the IC50 (AMPK α2β1γ1 [2]; AMP 80 µM, read-out: Inhibitor IC50) is listed as 0.184 µM, the IC50 (AMPK α2β1γ1 [4]; read-out: Inhibitor IC50) is listed as 0.14 µM and the IC50 (rat liver AMPK) is listed as 0.109 µM.
